Read-outs that look alike come from different tables or passages of the source. Marks after values point to notes of the source that are not given here.
How the values were obtained:
[1] = 24-h urine electrolyte excretion, T2DM subjects; type: in vivo, human; details: mean (SD)
Protocol: Urine samples were collected at pre-dose, and over a series of intervals (0–2, 2–4, 4–6, 6–8, 8–12 and 12–24 h post-dose) for the analysis of creatinine, glucose and electrolytes (Na, K and Cl). All fluid intake was recorded, as well as urine volume, over the 24 hours before and after dosing in each treatment period. Urine was tested for protein on the first morning void of day -1 and 24 h after dosing.

[2] = Plasma pharmacokinetics, T2DM subjects; type: in vivo, human; details: human, plasma analyte; for AUC(0-inf): read-out: AUC(0–∞) Geometric mean (CV%); for Cmax: read-out: Cmax Geometric mean (CV%); for Tmax: read-out: Tmax Median; for half-life: read-out: T½ Geometric mean (CV%) (converted)
Protocol: Six subjects with T2DM received two doses of remogliflozin etabonate and a placebo dose, in a randomized, dose escalating, crossover design, along with an oral glucose load on three study sessions separated by 7–14 days. Full PK and safety profiles were measured on Day 1 of each dosing period. The doses selected for this portion of the study, 50 mg and 500 mg, were based on data obtained in Part A. In each dosing period, subjects were assigned to active vs placebo in a 2:1 ratio. On each dosing day, a series of 2.0 mL blood samples were collected at pre-dose and 10, 20, 30 and 45 min, and 1, 1.25, 1.5, 2, 2.5, 3, 4, 6, 8, 12, 16, and 24 h post-dose for the determination of remogliflozin etabonate, remogliflozin and GSK279782 in plasma by using high-performance liquid chromatography with tandem mass spectrometry (MS/MS) as described. Non-compartmental PK analysis of plasma concentration–time data was performed using WinNonlin Version 4.1 (Pharsight Corporation, Mountainview, CA, USA). The Cmax and Tmax were obtained directly from the data. Areas under the plasma concentration–time curves from time zero to the last quantifiable time point (AUC[0–last]) and extrapolated to infinity (AUC[0–∞]) were calculated using the log-linear trapezoidal method. The terminal plasma elimination rate-constant (λz) was estimated from log-linear regression analysis of the terminal phase of the plasma concentration–time curve, and the T½ was calculated as T½ = ln2/λz. Ratios of AUC(0–∞) remogliflozin to AUC(0–last) remogliflozin etabonate were calculated including molecular weight corrections.

[3] = rats; cited from earlier work
[4] = Urine beta-2 microglobulin (exploratory renal toxicity biomarker), T2DM subjects; type: in vivo, human; details: one T2DM subject
Protocol: Urine beta-2 microglobulin levels, an exploratory biomarker that was measured as a potential early indicator of renal toxicity, were within the normal range at both baseline and after treatment for all subjects except for two subjects with diabetes.

[5] = Plasma glucose, insulin and intact GLP-1 after 50 g OGTT, T2DM subjects; type: in vivo, human; details: for median baseline adjusted AUC(0–4) for plasma GLP-1 following an OGTT: placebo 6.36
Protocol: All subjects were admitted to the unit two nights prior to receiving study drug to establish baseline safety parameters and fluid intake levels over a 36 h period. Subjects remained in the unit for at least 24 h after doses were administered for monitoring of clinical laboratory parameters exploratory biomarkers, vital signs, ECGs and adverse events. While confined to the clinical research unit, all subjects received meals standardized with respect to calories, fat, protein, carbohydrate, and sodium content; however, detailed dietary information was not captured in this study. In Part A, subjects were dosed following an overnight fast; lunch and dinner were provided at 4 and 10 h after dosing, respectively. Fifteen minutes after dosing in each treatment period in Part B, a fasting OGTT was performed using 50 g glucose (administered as 50 g Glucola™). A 50 g glucose load was chosen since the OGTT was being performed in subjects already known to have diabetes. The glucose drink was consumed by subjects within approximately 5 minutes. Blood samples for the measurement of glucose, insulin, and intact glucagon-like peptide 1 (GLP-1) were collected for 24 hours following dose administration. Provided that there were no safety or tolerability concerns, subjects were released from the clinic on day 2 of each treatment period until their return for the next treatment or follow-up period. Each subject was involved in the study for approximately 8 weeks (from screening to follow-up).
Blood samples for glucose were taken at 0 (pre-dose), and 1, 2, 4, 8 and 12 h after dosing in each treatment period (Part A). For Part B, blood samples for glucose, insulin and GLP-1 were taken at check-in on day -2, and at 0 h (pre-dose), and 0.5, 1, 1.5, 2, 4 h (prior to lunch), 4.5, 5, 6, 8, 10, 12 and 24 h after dosing on day 1 of each treatment period.
For glucose, plasma was analyzed using a YSI 2300 Glucose Analyzer (Yellow Springs International Life Sciences, Yellow Springs, OH, USA). For insulin, plasma was rapidly prepared and frozen at -70°C until analyzed by LabCorp (San Diego, CA, USA) using a chemiluminescent immunometric assay method (Siemen’s Immulite 2000 analyzer with Immulite Insulin Kit L2KIN2).
For assay of intact GLP-1, blood was collected into a chilled EDTA tube and protease inhibitors (DPP4 inhibitor obtained from EMD Millipore, St. Charles, MO) were immediately added. Samples were then spun down and plasma split into two separate tubes and frozen at -70°C until analyzed by Pathway Diagnostics (Malibu, CA, USA) by ELISA (kit # EGLP-35 K, EMD Millipore). The lowest level of intact GLP-1 this assay can detect is 2 pM (with a minimum plasma sample size of 0.4 mL).

[6] = remogliflozin etabonate 50 mg oral dose
[7] = remogliflozin etabonate 500 mg oral dose (prodrug n = 2)
[8] = remogliflozin etabonate 500 mg oral dose

Compound: CCOC(=O)OC[C@H]1O[C@@H](Oc2nn(C(C)C)c(C)c2Cc2ccc(OC(C)C)cc2)[C@H](O)[C@@H](O)[C@@H]1O [Remogliflozin etabonate, remogliflozin etabonate]
- Urinary chloride excretion ([1]; 50 mg single dose, n = 5): 168 (23.9)^c mmol
- Urinary potassium excretion ([1]; 50 mg single dose, n = 5): 65.8 (4.5)^c mmol
- Urinary sodium excretion ([1]; 50 mg single dose, n = 5): 173 (35.5)^c mmol
- Urinary chloride excretion ([1]; 500 mg single dose): 287 (147) mmol
- Urinary potassium excretion ([1]; 500 mg single dose): 108 (65.8) mmol
- Urinary sodium excretion ([1]; 500 mg single dose): 301 (128) mmol
- AUC(0-inf) [2, 6]: 8.91 ng·h/mL
- Cmax [2, 6]: 9.56 ng/mL
- Tmax [2, 6]: 34.8 min
- half-life [2, 6]: 36.6 min
- AUC(0-inf) [2, 7]: 91.9 ng·h/mL
- half-life [2, 7]: 49.2 min
- Cmax [2, 8]: 83.9 ng/mL
- Tmax [2, 8]: 45 min
- Urinary glucose excretion [3]: concentration-dependent increase
- Time for drug-related beta-2 microglobulin elevation to return to normal ([4]; 500 mg): ≤ 4 days
- Urine beta-2 microglobulin, elevation ([4]; 11 days after 500 mg, attributed by investigator to other concomitant disease): 2.5 µg/mL
- Urine beta-2 microglobulin, drug-related elevation ([4]; day 1 after 500 mg, normal <0.3 μg/mL): 1.62 µg/mL
- Increases in plasma glucose following an OGTT ([5]; 50 mg RE vs placebo, altered little from 50 mg to 500 mg): clearly attenuated
- median baseline adjusted AUC(0–4) for plasma GLP-1 following an OGTT ([5]; 50 mg): -8.85 pM·h
- median baseline adjusted AUC(0–4) for plasma GLP-1 following an OGTT ([5]; 500 mg): -1.95 pM·h
- Plasma insulin following the glucose load ([5]; 50 and 500 mg): no clear trends

Reference: paper PMC3700763, “First human dose-escalation study with remogliflozin etabonate, a selective inhibitor of the sodium-glucose transporter 2 (SGLT2), in healthy subjects and in subjects with type 2 diabetes mellitus” (BMC Pharmacology & Toxicology, 2013)
